# Measured values published in ChEMBL document CHEMBL2331378, “Synthesis and discovery of novel piperidone-grafted mono- and bis-spirooxindole-hexahydropyrrolizines as potent cholinesterase inhibitors” (Bioorg Med Chem, 2013).
# pIC50: −log10 of the molar value.
# Columns and labels:
# Cholinesterase = Cholinesterase (Equus caballus, UniProt P81908); assay: Inhibition of equine serum BuChE using S-butyrylthiocholine chloride substrate by Ellman's method based spectrophotometry
# [1] = Selectivity index, ratio of IC50 for equine serum BuChE to IC50 for AChE (unknown origin)
# [2] = Selectivity index, ratio of IC50 for AChE (unknown origin) to IC50 for equine serum BuChE
# Acetylcholinesterase = Acetylcholinesterase (Homo sapiens, UniProt P22303); assay: Inhibition of AChE (unknown origin) using acetylthiocholine iodide substrate by Ellman's method based spectrophotometry
# Sequence of Acetylcholinesterase (P22303 whole entry): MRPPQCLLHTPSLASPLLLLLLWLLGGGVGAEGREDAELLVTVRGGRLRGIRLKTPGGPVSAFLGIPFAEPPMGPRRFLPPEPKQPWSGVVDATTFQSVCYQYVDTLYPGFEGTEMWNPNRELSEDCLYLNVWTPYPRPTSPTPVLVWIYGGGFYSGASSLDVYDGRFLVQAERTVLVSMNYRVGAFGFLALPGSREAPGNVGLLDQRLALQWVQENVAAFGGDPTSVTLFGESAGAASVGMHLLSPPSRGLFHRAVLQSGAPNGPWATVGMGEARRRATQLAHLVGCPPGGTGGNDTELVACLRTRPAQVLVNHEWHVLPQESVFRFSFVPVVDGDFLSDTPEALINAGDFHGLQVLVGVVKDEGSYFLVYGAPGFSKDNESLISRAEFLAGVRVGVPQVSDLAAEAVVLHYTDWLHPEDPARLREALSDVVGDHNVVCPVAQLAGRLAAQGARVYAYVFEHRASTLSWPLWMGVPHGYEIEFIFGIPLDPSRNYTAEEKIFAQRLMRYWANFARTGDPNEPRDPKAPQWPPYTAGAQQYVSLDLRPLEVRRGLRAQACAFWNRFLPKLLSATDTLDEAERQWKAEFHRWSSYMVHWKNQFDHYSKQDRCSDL
# Sequence of Cholinesterase (P81908 whole entry): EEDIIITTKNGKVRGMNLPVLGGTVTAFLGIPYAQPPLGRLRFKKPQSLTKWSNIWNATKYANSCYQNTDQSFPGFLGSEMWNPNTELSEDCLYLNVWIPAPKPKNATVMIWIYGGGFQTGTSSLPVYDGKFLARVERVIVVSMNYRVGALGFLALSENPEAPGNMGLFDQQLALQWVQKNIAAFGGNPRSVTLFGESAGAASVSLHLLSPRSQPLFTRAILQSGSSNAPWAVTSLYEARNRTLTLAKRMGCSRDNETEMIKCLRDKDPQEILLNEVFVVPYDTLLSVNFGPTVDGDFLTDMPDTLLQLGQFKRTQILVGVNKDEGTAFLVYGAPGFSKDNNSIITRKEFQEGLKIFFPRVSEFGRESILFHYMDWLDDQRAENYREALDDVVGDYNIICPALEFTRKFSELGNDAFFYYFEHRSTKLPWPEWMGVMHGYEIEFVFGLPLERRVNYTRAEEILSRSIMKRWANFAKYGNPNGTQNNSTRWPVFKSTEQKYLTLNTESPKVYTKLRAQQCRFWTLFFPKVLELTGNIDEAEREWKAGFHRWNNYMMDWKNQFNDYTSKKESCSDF
Compound,pIC50 (Cholinesterase),Ratio IC50 [1],Ratio IC50 [2],pIC50 (Acetylcholinesterase)
C=CC(=O)N1C/C(=C\c2ccc(F)cc2)C(=O)/C(=C/c2ccc(F)cc2)C1,4.51,2.02,0.49,4.82
O=C(C[C@H]1C[C@H]2CCCN2[C@]12C(=O)Nc1ccccc12)N1C/C(=C\c2ccc(F)cc2)C(=O)[C@]2(C[C@H]3CCCN3[C@@]23C(=O)Nc2ccccc23)C1 (racemic),5.08,0.35,2.86,4.63
C=CC(=O)N1C/C(=C\c2ccccc2F)C(=O)/C(=C/c2ccccc2F)C1,4.27,4.58,0.22,4.93
Cc1ccc(/C=C2\CN(C(=O)C[C@H]3C[C@H]4CCCN4[C@]34C(=O)Nc3ccccc34)C[C@@]3(C[C@H]4CCCN4[C@@]34C(=O)Nc3ccccc34)C2=O)cc1 (racemic),4.75,0.91,1.1,4.71
O=C1/C(=C/c2ccccc2Cl)CN(C(=O)C[C@H]2C[C@H]3CCCN3[C@]23C(=O)Nc2ccccc23)C/C1=C\c1ccccc1Cl (racemic),4.70,1.66,0.6,4.92
C=CC(=O)N1C/C(=C\c2cccc([N+](=O)[O-])c2)C(=O)/C(=C/c2cccc([N+](=O)[O-])c2)C1,4.29,5.24,0.19,5.01
O=C1/C(=C/c2ccccc2)CN(C(=O)C[C@H]2C[C@H]3CCCN3[C@]23C(=O)Nc2ccccc23)C/C1=C\c1ccccc1 (racemic),4.79,0.93,1.07,4.76
C=CC(=O)N1C/C(=C\c2ccccc2Cl)C(=O)/C(=C/c2ccccc2Cl)C1,4.44,2.24,0.45,4.79
C=CC(=O)N1C/C(=C\c2ccc(C)cc2)C(=O)/C(=C/c2ccc(C)cc2)C1,4.46,1.94,0.51,4.74
O=C1/C(=C/c2cccc([N+](=O)[O-])c2)CN(C(=O)C[C@H]2C[C@H]3CCCN3[C@]23C(=O)Nc2ccccc23)C/C1=C\c1cccc([N+](=O)[O-])c1 (racemic),4.74,3.03,0.33,5.22
C=CC(=O)N1C/C(=C\c2ccc(Cl)cc2Cl)C(=O)/C(=C/c2ccc(Cl)cc2Cl)C1,4.53,1.86,0.54,4.80
O=C(C[C@H]1C[C@H]2CCCN2[C@]12C(=O)Nc1ccccc12)N1C/C(=C\c2ccccc2Cl)C(=O)[C@]2(C[C@H]3CCCN3[C@@]23C(=O)Nc2ccccc23)C1 (racemic),4.93,0.86,1.16,4.87
C=CC(=O)N1C/C(=C\c2ccccc2C)C(=O)/C(=C/c2ccccc2C)C1,4.52,1.73,0.58,4.76
C=CC(=O)N1C/C(=C\c2ccccc2)C(=O)/C(=C/c2ccccc2)C1,4.66,1.25,0.8,4.75
O=C(C[C@H]1C[C@H]2CCCN2[C@]12C(=O)Nc1ccccc12)N1C/C(=C\c2cccc([N+](=O)[O-])c2)C(=O)[C@]2(C[C@H]3CCCN3[C@@]23C(=O)Nc2ccccc23)C1 (racemic),4.61,0.91,1.1,4.58
COc1ccccc1/C=C1\CN(C(=O)C[C@H]2C[C@H]3CCCN3[C@]23C(=O)Nc2ccccc23)C[C@@]2(C[C@H]3CCCN3[C@@]23C(=O)Nc2ccccc23)C1=O (racemic),4.72,1.68,0.59,4.94
O=C1/C(=C/c2cccc3ccccc23)CN(C(=O)C[C@H]2C[C@H]3CCCN3[C@]23C(=O)Nc2ccccc23)C/C1=C\c1cccc2ccccc12 (racemic),4.93,1.74,0.57,5.17

Compound,pIC50 (Cholinesterase),Ratio IC50 [1],Ratio IC50 [2],pIC50 (Acetylcholinesterase)
C=CC(=O)N1C/C(=C\c2cccc3ccccc23)C(=O)/C(=C/c2cccc3ccccc23)C1,4.64,1.67,0.6,4.86
Cc1ccccc1/C=C1\CN(C(=O)C[C@H]2C[C@H]3CCCN3[C@]23C(=O)Nc2ccccc23)C[C@@]2(C[C@H]3CCCN3[C@@]23C(=O)Nc2ccccc23)C1=O (racemic),4.89,0.47,2.12,4.56
Cc1ccc(/C=C2\CN(C(=O)C[C@H]3C[C@H]4CCCN4[C@]34C(=O)Nc3ccccc34)C/C(=C\c3ccc(C)cc3)C2=O)cc1 (racemic),4.60,1.26,0.8,4.70
C=CC(=O)N1C/C(=C\c2ccc(Cl)cc2)C(=O)/C(=C/c2ccc(Cl)cc2)C1,4.42,1.73,0.58,4.66
O=C(C[C@H]1C[C@H]2CCCN2[C@]12C(=O)Nc1ccccc12)N1C/C(=C\c2ccccc2F)C(=O)[C@]2(C[C@H]3CCCN3[C@@]23C(=O)Nc2ccccc23)C1 (racemic),5.04,0.37,2.7,4.61
Cc1ccccc1/C=C1\CN(C(=O)C[C@H]2C[C@H]3CCCN3[C@]23C(=O)Nc2ccccc23)C/C(=C\c2ccccc2C)C1=O (racemic),4.75,1.43,0.7,4.90
O=C(C[C@H]1C[C@H]2CCCN2[C@]12C(=O)Nc1ccccc12)N1C/C(=C\c2ccc(Cl)cc2Cl)C(=O)[C@]2(C[C@H]3CCCN3[C@@]23C(=O)Nc2ccccc23)C1 (racemic),5.02,1.36,0.74,5.16
O=C1/C(=C/c2ccc(Cl)cc2)CN(C(=O)C[C@H]2C[C@H]3CCCN3[C@]23C(=O)Nc2ccccc23)C/C1=C\c1ccc(Cl)cc1 (racemic),4.49,9.6,0.1,5.47
C=CC(=O)N1C/C(=C\c2ccccc2OC)C(=O)/C(=C/c2ccccc2OC)C1,4.54,3.32,0.3,5.06
O=C1/C(=C/c2ccc(Cl)cc2Cl)CN(C(=O)C[C@H]2C[C@H]3CCCN3[C@]23C(=O)Nc2ccccc23)C/C1=C\c1ccc(Cl)cc1Cl (racemic),4.67,5.15,0.19,5.39
O=C(C[C@H]1C[C@H]2CCCN2[C@]12C(=O)Nc1ccccc12)N1C/C(=C\c2ccccc2)C(=O)[C@]2(C[C@H]3CCCN3[C@@]23C(=O)Nc2ccccc23)C1 (racemic),4.74,0.93,1.08,4.71
O=C(C[C@H]1C[C@H]2CCCN2[C@]12C(=O)Nc1ccccc12)N1C/C(=C\c2cccc3ccccc23)C(=O)[C@]2(C[C@H]3CCCN3[C@@]23C(=O)Nc2ccccc23)C1 (racemic),5.19,0.31,3.21,4.69
O=C1/C(=C/c2ccccc2F)CN(C(=O)C[C@H]2C[C@H]3CCCN3[C@]23C(=O)Nc2ccccc23)C/C1=C\c1ccccc1F (racemic),5.46,0.1,9.82,4.46
COc1ccccc1/C=C1\CN(C(=O)C[C@H]2C[C@H]3CCCN3[C@]23C(=O)Nc2ccccc23)C/C(=C\c2ccccc2OC)C1=O (racemic),5.03,0.59,1.69,4.80
O=C1/C(=C/c2ccc(F)cc2)CN(C(=O)C[C@H]2C[C@H]3CCCN3[C@]23C(=O)Nc2ccccc23)C/C1=C\c1ccc(F)cc1 (racemic),5.40,0.2,4.97,4.70
O=C(C[C@H]1C[C@H]2CCCN2[C@]12C(=O)Nc1ccccc12)N1C/C(=C\c2ccc(Cl)cc2)C(=O)[C@]2(C[C@H]3CCCN3[C@@]23C(=O)Nc2ccccc23)C1 (racemic),4.96,1.38,0.73,5.10
